Measured values: patent publication US9447108B2 (SZEGEDI TUDOMÁNYEGYETEM, priority 2013, dated 2016)
Like-named read-outs stand apart in the source and are kept apart here.

Tests used:
δ-opioid receptors = target: T1, δ-opioid receptors (Rattus norvegicus, UniProt P33533); test: Receptor binding assay, [3H]Ile5,6-deltorphin-2 displacement in rat brain membranes
T1 construct: A crude membrane fraction was prepared from Wistar rat brains and spinal cords; from tissue; host or cells: Wistar rat brain (without cerebellum), crude membrane fraction
T1 sequence (P33533 whole entry): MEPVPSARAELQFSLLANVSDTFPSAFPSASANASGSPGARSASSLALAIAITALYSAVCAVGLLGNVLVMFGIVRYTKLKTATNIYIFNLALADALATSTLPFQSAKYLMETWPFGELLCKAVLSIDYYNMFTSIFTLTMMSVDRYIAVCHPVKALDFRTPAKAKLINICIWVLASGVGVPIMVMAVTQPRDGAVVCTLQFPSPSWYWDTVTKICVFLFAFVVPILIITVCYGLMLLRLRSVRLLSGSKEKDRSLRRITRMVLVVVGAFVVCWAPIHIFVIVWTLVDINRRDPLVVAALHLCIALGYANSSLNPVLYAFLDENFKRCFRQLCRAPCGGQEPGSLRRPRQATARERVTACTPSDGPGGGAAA

μ-opioid receptors = target: T2, μ-opioid receptors (Rattus norvegicus, UniProt P33535); test: Receptor binding assay, [3H]DAMGO displacement in rat brain membranes; conditions: for Ki^δ/Ki^μ: selectivity ratio δ/μ
T2 construct: A crude membrane fraction was prepared from Wistar rat brains and spinal cords; from tissue; host or cells: Wistar rat brain (without cerebellum), crude membrane fraction
T2 sequence (P33535 whole entry): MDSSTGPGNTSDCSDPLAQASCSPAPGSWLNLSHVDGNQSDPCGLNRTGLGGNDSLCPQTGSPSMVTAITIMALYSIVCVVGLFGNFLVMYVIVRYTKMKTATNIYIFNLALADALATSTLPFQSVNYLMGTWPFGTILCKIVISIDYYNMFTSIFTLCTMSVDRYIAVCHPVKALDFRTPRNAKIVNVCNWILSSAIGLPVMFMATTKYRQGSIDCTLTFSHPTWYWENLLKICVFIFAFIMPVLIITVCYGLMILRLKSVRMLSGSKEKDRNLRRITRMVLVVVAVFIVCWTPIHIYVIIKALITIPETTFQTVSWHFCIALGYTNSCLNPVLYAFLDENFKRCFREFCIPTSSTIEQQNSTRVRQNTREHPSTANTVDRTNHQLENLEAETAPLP

rats = test: Behavioral nociceptive testing, paw-withdrawal test (PWD), heat pain threshold; format: in vivo, rat; conditions: for antinociception, potency and dose dependence: s.c., 0.3-10 mg/kg
Protocol: The paw-withdrawal test (PWD) was used to measure the heat pain threshold after the treatments. A detailed description of this model was published by Hargreaves et al. (Hargreaves, K.; Dubner, R.; Brown, F.; Flores, C.; Joris, J. Pain; 32, 77 1988). Briefly, rats were placed on a glass surface in a plastic chamber and were allowed to acclimatize to their environment for 15-30 min before testing. The baseline hind paw-withdrawal latencies (baseline values at 0 min determined two times) were then obtained. A heat stimulus was directed onto the plantar surface of each hind paw and the intensity of the thermal stimulus was adjusted to derive an average baseline latency of approximately 10 s (cut-off time 20 s). Then the animals were treated subcutaneously with different doses of ligands (0.3-10 mg/kg). The nociceptive threshold was determined at 15-min intervals for 120 min.
Data are presented as means±SEM. The mean of the two sides and the mean of two time points (15-30; 45-60; 75-90 and […]) were evaluated. The results were analyzed using a two-way ANOVA (ANalysis Of VAriances) (factors: treatment and time with repeated measurements). Subsequent analysis was performed using Fisher-LSD test. A p-value less than 0.05 was considered significant. Data were analyzed using […] 7.1. software (Statsoft Inc., Tulsa, Okla.).

[1] = 10 mg/kg s.c., 0 min (baseline)

Row | Molecule | Time course of the antinociceptive effects (paw-withdrawal latency) (rats; 3 mg/kg s.c., 0 min (baseline)) | Time course of the antinociceptive effects (paw-withdrawal latency) (rats; 3 mg/kg s.c., 30 min) | Time course of the antinociceptive effects (paw-withdrawal latency) (rats; 3 mg/kg s.c., 60 min) | Time course of the antinociceptive effects (paw-withdrawal latency) (rats; 3 mg/kg s.c., 90 min) | Time course of the antinociceptive effects (paw-withdrawal latency) (rats; 3 mg/kg s.c., 120 min) | Time course of the antinociceptive effects (paw-withdrawal latency) (rats; [1]) | Time course of the antinociceptive effects (paw-withdrawal latency) (rats; 10 mg/kg s.c., 30 min) | Time course of the antinociceptive effects (paw-withdrawal latency) (rats; 10 mg/kg s.c., 60 min) | Time course of the antinociceptive effects (paw-withdrawal latency) (rats; 10 mg/kg s.c., 90 min) | Time course of the antinociceptive effects (paw-withdrawal latency) (rats; 10 mg/kg s.c., 120 min) | antinociception, potency and dose dependence (rats; in words) | other results
1 | (5α,6α,7β,8β)-4,5-epoxy-3-ethoxy-6-hydroxy-17-methyl-(7,8-^2H2)-morphinan [Example 3] | 10.0 s | 12.2 s | 11.6 s | 11.4 s | 11.1 s | 10.1 s | 12.1 s | 13.1 s | 12.9 s | 11.1 s | lower potency | Ki (δ-opioid receptors; [3H]Ile5,6-deltorphin-2, rat brain membranes, read-out: Ki^δ): 6120 ± 845 nM; Ki (μ-opioid receptors; [3H]DAMGO, rat brain membranes, read-out: Ki^μ): 205 ± 63.1 nM; Ki^δ/Ki^μ (μ-opioid receptors): 30; antinociceptive effect compared to non-deuterated analogues (rats; 10 mg/kg s.c., in words): increased and prolonged the effect
2 | COc1ccc2c3c1O[C@H]1C(=O)CC[C@@]4(O)[C@@H](C2)N(C)CC[C@]314 [Oxycodone] | 9.8 s | 12.2 s | 12.6 s | 11.9 s | 10.6 s |  |  |  |  |  |  | 
3 | [2H][C@H]1C(=O)[C@@H]2Oc3c(OC)ccc4c3[C@@]23CCN(C)[C@H](C4)[C@]3(O)[C@H]1[2H] [Example 5, (5α,7β,8β,14β)-4,5-epoxy-14-hydroxy-3-methoxy-17-methyl-(7,8-^2H2)-morphinan-6-one] | 9.9 s | 13.3 s | 13.7 s | 13.6 s | 12.1 s |  |  |  |  |  |  | 
4 | COc1ccc2c3c1O[C@H]1[C@@H](O)CC[C@H]4[C@@H](C2)N(C)CC[C@@]341 [Dihydrocodeine] | 10.1 s | 11.1 s | 10.7 s | 10.5 s | 10.3 s | 9.9 s | 13.4 s | 13.6 s | 10.9 s | 9.8 s |  | Ki (δ-opioid receptors): > 10000 nM; Ki (μ-opioid receptors): 122 ± 15 nM
5 | [2H][C@@H]1[C@H]([2H])[C@H]2[C@H]3Cc4ccc(O)c5c4[C@@]2(CCN3C)[C@@H](O5)[C@H]1O [Example 1, (5α,6α,7β,8β)-3,6-dihydroxy-4,5-epoxy-17-methyl-(7,8-^2H2)-morphinan] | 10.1 s | 14.1 s | 14.9 s | 14.9 s | 14.1 s | 9.8 s | 21.3 s | 22.1 s | 16.8 s | 16.1 s | more potent | antinociceptive effect at 3 mg/kg, efficacy compared to morphine (rats; 3 mg/kg s.c., in words): more effective than morphine; duration of antinociceptive effect compared to other drugs (rats; 3 mg/kg s.c., in words): more prolonged effects compared to other drugs
6 | CN1CC[C@]23c4c5ccc(O)c4O[C@H]2[C@@H](O)CC[C@H]3[C@H]1C5 [Dihydromorphine] | 10.2 s | 13.1 s | 13.9 s | 14.1 s | 13.3 s | 10.1 s | 19.4 s | 20.6 s | 15.3 s | 14.1 s |  | 
7 | CN1CC[C@]23c4c5ccc(O)c4O[C@H]2[C@@H](O)C=C[C@H]3[C@H]1C5 [Morphine] | 10.1 s | 14.4 s | 13.9 s | 13.2 s | 12.8 s | 9.9 s | 18.2 s | 18.8 s | 14.4 s | 10.5 s |  | 
8 | [2H][C@@H]1[C@H]([2H])[C@H]2[C@H]3Cc4ccc(OC)c5c4[C@@]2(CCN3C)[C@@H](O5)[C@H]1O [Example 2, (5α,6α,7β,8β)-4,5-epoxy-6-hydroxy-3-methoxy-17-methyl-(7,8-^2H2)-morphinan] | 9.9 s | 12.1 s | 11.9 s | 11.7 s | 11.8 s | 10.1 s | 14.2 s | 14.8 s | 14.9 s | 14.1 s | lower potency | Ki (δ-opioid receptors): > 10000 nM; Ki (μ-opioid receptors): 34.1 ± 1.08 nM; affinity to μ-opioid receptors compared to the corresponding hydrogenated derivative (μ-opioid receptors; in words): higher affinity to μ-opioid receptors than the corresponding hydrogenated derivatives; antinociceptive effect compared to non-deuterated analogues (rats; 10 mg/kg s.c., in words): increased and prolonged the effect
9 | CCOc1ccc2c3c1O[C@H]1[C@@H](O)CC[C@H]4[C@@H](C2)N(C)CC[C@@]341 [Dihydroethylmorphine] | 10.1 s | 11.3 s | 10.9 s | 10.2 s | 9.9 s | 10.2 s | 11.5 s | 12.3 s | 12.0 s | 10.4 s |  | 
10 | [2H][C@@H]1[C@H]([2H])[C@H]2[C@H]3Cc4ccc(OC(C)=O)c5c4[C@@]2(CCN3C)[C@@H](O5)[C@H]1OC(C)=O [Example 4, (5α,6α,7β,8β)-3,6-diacetoxy-4,5-epoxy-17-methyl-(7,8-^2H2)-morphinan] | 9.7 s | 19.7 s | 17.9 s | 14.3 s | 11.4 s |  |  |  |  |  | more potent | Ki (δ-opioid receptors): 211 ± 24 nM; Ki (μ-opioid receptors): 2.89 ± 0.7 nM; affinity to μ-opioid receptors compared to morphine (μ-opioid receptors; in words): higher affinity to μ-opioid receptors than the morphine; Ki^δ/Ki^μ (μ-opioid receptors): 73; duration of antinociceptive effect compared to other drugs (rats; 3 mg/kg s.c., in words): more prolonged effects compared to other drugs
11 | CC(=O)Oc1ccc2c3c1O[C@H]1[C@@H](OC(C)=O)CC[C@H]4[C@@H](C2)N(C)CC[C@@]341 [Dihydroheroine] | 10.1 s | 17.3 s | 15.6 s | 12.9 s | 10.7 s |  |  |  |  |  |  | 
